Laboratory results published in ChEMBL document CHEMBL3044964, “Synthesis of novel imidazo[2,1-b][1,3,4]thiadiazoles appended to sydnone as anticancer agents” (Med Chem Res, 2013).
Values after ≈ are worked out from the molar mass of the structure shown. Active and inactive are the calls of the source. The calls are words filed in the database; no cut-off is given here.

What was measured:
Escherichia coli [1] = test: Toxicity in wild type Escherichia coli AB1157 assessed as growth inhibition after 24 hr by agar well diffusion method; type: organism-based; conditions: in vivo
Escherichia coli [2] = test: Toxicity in wild type Escherichia coli AB1157 assessed as growth inhibition at 125 ug after 24 hr by agar well diffusion method; type: organism-based; conditions: in vivo
HT-29 = test: Cytotoxicity against Homo sapiens (human) HT-29 cells by SRB assay; type: functional
Escherichia coli [3] = test: Toxicity in wild type Escherichia coli AB1157 assessed as growth inhibition at 500 ug after 24 hr by agar well diffusion method; type: organism-based; conditions: in vivo
Escherichia coli [4] = test: Toxicity in wild type Escherichia coli AB1157 assessed as growth inhibition at 2000 ug after 24 hr by agar well diffusion method; type: organism-based; conditions: in vivo
Escherichia coli [5] = test: Toxicity in wild type Escherichia coli AB1157 assessed as growth inhibition at 250 ug after 24 hr by agar well diffusion method; type: organism-based; conditions: in vivo
Escherichia coli [6] = test: Toxicity in wild type Escherichia coli AB1157 assessed as growth inhibition at 1000 ug after 24 hr by agar well diffusion method; type: organism-based; conditions: in vivo
Escherichia coli [7] = test: Induction of Escherichia coli DNA cleavage at 25 mg after 2 hr by agarose gel electrophoresis

| Compound | MIC (Escherichia coli [1]) [mg] | growth inhibition (GI) (Escherichia coli [2]) | GI50 (HT-29) [µg/mL] | LC50 (HT-29) [µg/mL] | TGI (HT-29) [µg/mL] | diameter of the inhibition zone (DIZ) (Escherichia coli [3]) [cm] | diameter of the inhibition zone (DIZ) (Escherichia coli [4]) [cm] | diameter of the inhibition zone (DIZ) (Escherichia coli [5]) [cm] | diameter of the inhibition zone (DIZ) (Escherichia coli [6]) [cm] | Activity (Escherichia coli [7]) |
| --- | --- | --- | --- | --- | --- | --- | --- | --- | --- | --- |
| Cc1ccc(-n2n[o+]c([O-])c2-c2nn3cc(-c4cc5cc(Br)ccc5oc4=O)nc3s2)cc1 | > 2 | Non-toxic | 6.1 (≈ 11.7 µM) | > 70 | > 30 | 0 | 0 | 0 | 0 | – |
| O=c1oc2ccccc2cc1-c1cn2nc(-c3c([O-])[o+]nn3-c3ccccc3)sc2n1 | > 2 | Non-toxic | 6.3 (≈ 14.7 µM) | > 70 | > 30 | 0 | 0 | 0 | 0 | – |
| COc1ccc(-n2n[o+]c([O-])c2-c2nn3cc(-c4cc5ccccc5oc4=O)nc3s2)cc1 | 1 | Non-toxic | 3.14 (≈ 6.83 µM) | > 70 | < 30 | 0 | 0.8 | 0 | 0.5 | – |
| Cc1ccc(-n2n[o+]c([O-])c2-c2nn3cc(-c4cc5cc(Cl)ccc5oc4=O)nc3s2)cc1 | > 2 | Non-toxic | 7.9 (≈ 16.5 µM) | > 80 | > 40 | 0 | 0 | 0 | 0 | Active |
| O=c1oc2ccc(Cl)cc2cc1-c1cn2nc(-c3c([O-])[o+]nn3-c3ccccc3)sc2n1 | > 2 | Non-toxic | 7.7 (≈ 16.6 µM) | > 80 | > 40 | 0 | 0 | 0 | 0 | – |
| O=c1oc2ccccc2cc1-c1cn2nc(-c3c([O-])[o+]nn3-c3ccc(Cl)cc3)sc2n1 | > 2 | Non-toxic | 4 (≈ 8.62 µM) | > 80 | < 30 | 0 | 0 | 0 | 0 | Active |
| STANNOUS CHLORIDE | 0.25 | Non-toxic | – | – | – | 0.5 | 1.5 | 0.3 | 0.8 | – |
| Cc1ccc(-n2n[o+]c([O-])c2-c2nn3cc(-c4cc5ccccc5oc4=O)nc3s2)cc1 | > 2 | Non-toxic | 4.23 (≈ 9.54 µM) | > 80 | < 30 | 0 | 0 | 0 | 0 | – |
| COc1ccc(-n2n[o+]c([O-])c2-c2nn3cc(-c4cc5cc(Cl)ccc5oc4=O)nc3s2)cc1 | 1 | Non-toxic | 3.68 (≈ 7.45 µM) | > 70 | < 30 | 0 | 0.8 | 0 | 0.5 | – |
| COc1ccc(-n2n[o+]c([O-])c2-c2nn3cc(-c4cc5cc(Br)ccc5oc4=O)nc3s2)cc1 | 1 | Non-toxic | 3.04 (≈ 5.65 µM) | > 80 | < 30 | 0 | 0.8 | 0 | 0.5 | – |
| O=c1oc2ccc(Cl)cc2cc1-c1cn2nc(-c3c([O-])[o+]nn3-c3ccc(Cl)cc3)sc2n1 | > 2 | Non-toxic | 8 (≈ 16.1 µM) | > 80 | > 40 | 0 | 0 | 0 | 0 | Active |
| O=c1oc2ccc(Br)cc2cc1-c1cn2nc(-c3c([O-])[o+]nn3-c3ccccc3)sc2n1 | > 2 | Non-toxic | 5.6 (≈ 11 µM) | > 70 | > 30 | 0 | 0 | 0 | 0 | – |
| O=c1oc2ccc(Br)cc2cc1-c1cn2nc(-c3c([O-])[o+]nn3-c3ccc(Cl)cc3)sc2n1 | > 2 | Non-toxic | 5.25 (≈ 9.67 µM) | > 70 | > 40 | 0 | 0 | 0 | 0 | – |
